Patent US6559151B2, “6-(2-trifluoromethyl-phenyl)-triazolopyrimidines” (BASF Aktiengesellschaft, priority 2000, dated 2003)
≈ marks a conversion by molar mass, not a printed value.

Key:
Format in all cases: cell-based
Rhizoctonia solani = assay: In vitro fungicidal activity against Rhizoctonia solani (mycelial growth inhibition rating); parameters: key: 0: None; 3: slight; 5: moderate; 7: severe; 9: complete; settings: 25 ppm; 24-cell-well plates; 3-7 days of incubation
Method: C Evaluation of In vitro Fungicidal Activity against Rhizoctonia solani Test compounds are dissolved in acetone to give a concentration of 25 ppm and added to individual cell walls (24-cell-well-plates, Corning), which were previously filled with a suspension of ground fungal mycelium in a chemically defined growth medium. After 3-7 days of incubation, inhibition of mycelial growth is recorded using the following scale: The data obtained are shown in Table IV. Rating scale [table]

Alternaria solani = assay: MIC serial dilution test, Alternaria solani; settings: V8 juice medium, 6-12 days at 18-25° C., visual
Botrytis cinerea = assay: MIC serial dilution test, Botrytis cinerea; settings: V8 juice medium, 6-12 days at 18-25° C., visual
[1] = test system: Magnaporthe grisea f. sp. Oryzae; settings: total inhibition of mycelial growth; V8 juice medium; 6-12 days at 18-25° C.; visual
Cochliobulus sativus = assay: MIC serial dilution test, Cochliobulus sativus; settings: V8 juice medium, 6-12 days at 18-25° C., visual

Row | SMILES | Rating (inhibition of mycelial growth) (Rhizoctonia solani) | MIC (Minimum Inhibitory Concentration) ALTEBO (Alternaria solani) [µg/mL] | MIC (Minimum Inhibitory Concentration) BOTRCI (Botrytis cinerea) | MIC (Minimum Inhibitory Concentration) PYRIOR [1] [µg/mL] | MIC (Minimum Inhibitory Concentration) COCHSA (Cochliobulus sativus) [µg/mL]
1 | CC(C)Nc1c(-c2cc(F)ccc2C(F)(F)F)c(Cl)nc2ncnn12 [Compound I-1, [5-chloro-6-(5-fluoro-2-trifluoromethyl-phenyl)-[1,2,4]triazolo[1,5-α]pyrimidin-7-yl]-isopropyl-amine] | 7 | 100 (≈ 268 µM) | 50 µg/mL (≈ 134 µM) | 1.56 (≈ 4.17 µM) | 25 (≈ 66.9 µM)
2 | CCN(CC)c1c(-c2cc(F)ccc2C(F)(F)F)c(Cl)nc2ncnn12 [Compound I-4, N-[5-chloro-6-(5-fluoro-2-trifluoromethyl-phenyl)-[1,2,4]triazolo[1,5-α]pyrimidin-7-yl]-N,N-diethyl-amine] | 7 | >100 | 25 µg/mL (≈ 64.5 µM) | 0.78 (≈ 2.01 µM) | 12.5 (≈ 32.2 µM)
3 | Fc1ccc(C(F)(F)F)c(-c2c(Cl)nc3ncnn3c2NCC(F)(F)F)c1 [Compound I-6] | 7 |  |  |  | 
4 | Nc1c(-c2cc(F)ccc2C(F)(F)F)c(Cl)nc2ncnn12 [Compound I-7] | 0 |  |  |  | 
5 | CCC(C)Nc1c(-c2cc(F)ccc2C(F)(F)F)c(Cl)nc2ncnn12 (stereo not drawn) [Compound I-5, [5-chloro-6-(5-fluoro-2-trifluoromethyl-phenyl)-[1,2,4]triazolo[1,5-α]pyrimidin-7-yl]-N-(1-methyl-propyl)-amine] | 7 | 6.25 (≈ 16.1 µM) | 12.5 µg/mL (≈ 32.2 µM) | 0.78 (≈ 2.01 µM) | 12.5 (≈ 32.2 µM)
6 | Fc1ccc(C(F)(F)F)c(-c2c(Cl)nc3ncnn3c2NC2CCCC2)c1 [Compound I-2, [5-chloro-6-(5-fluoro-2-trifluoromethyl-phenyl)-[1,2,4]triazolo[1,5-α]pyrimidin-7-yl]-cyclopentyl-amine] | 7 | 3.13 (≈ 7.83 µM) | 25 µg/mL (≈ 62.5 µM) | 0.78 (≈ 1.95 µM) | 3.13 (≈ 7.83 µM)
7 | Fc1ccc(C(F)(F)F)c(-c2c(Cl)nc3ncnn3c2NC2CC3CCC2C3)c1 (centres unmarked) [Compound I-3] | 5 | 0.78 (≈ 1.83 µM) | 25 µg/mL (≈ 58.7 µM) | 12.5 (≈ 29.4 µM) | 6.25 (≈ 14.7 µM)
8 | CC1CCN(c2c(-c3cc(F)ccc3C(F)(F)F)c(Cl)nc3ncnn23)CC1 [Example 5, 5-Chloro-6-(5-fluoro-2-trifluorome-thylphenyl)-7-(4-methyl-piperidin-1-yl)-[1,2,4]triazolo[1,5-α]pyrimidine] | 7 | 0.2 (≈ 0.483 µM) | 0,78 μg/ml | <0.05 | 0.78 (≈ 1.88 µM)
